In US9932297B2, “Alkynes and methods of reacting alkynes with 1,3-dipole-functional compounds” (UNIVERSITY OF GEORGIA RESEARCH FOUNDATION, INC., priority 2007, dated 2018):

Legend:
[1] = Cycloaddition with benzyl azide, second-order rate constant by 1H NMR; type: physicochemical; settings: for second-order rate constant: NMR
Description: However, upon exposure to azides a fast reaction took place and gave the corresponding triazoles in high yield. For example, triazoles 10-13 were obtained in quantitative yields as mixtures of regioisomers by reaction of the corresponding azido-containing sugar and amino acid derivatives with 3 in methanol for 30 minutes (Scheme 2; FIG. 3 and FIG. 4). The progress of the reaction of 3 with benzyl azide in methanol and in a mixture of water/acetonitrile (1:4 v/v) was monitored by NMR spectroscopy by integration of the benzylic proton signals, and second-order rate constants of 0.17 and 2.3 m^−1s^−1, respectively, were determined.
A number of analogs (63-68) of 4-dibenzocyclooctynol (61) were prepared and the influence of these modifications on the reaction rate of the cycloaddition with benzyl azide was determined by integration of the benzylic proton signals in ^1H NMR spectrum.
General Method for Calculating Second Order Rate Constants by NMR.
Substrates were dissolved separately in the appropriate solvent and mixed 1:1 at 6 mM concentrations. Percent conversion was monitored both by disappearance of starting material and appearance of the two regioisomeric products as determined by integration at multiple chemical shifts. Second order rate constants for the reaction were determined by plotting the 1/[substrates] versus time and analysis by linear regression. Second order rate constants correspond to one half of the determined slope.

[2] = Shelf life and reactivity towards nucleophiles; type: physicochemical
[3] = system: Jurkat cells bearing azides (Ac4ManNAz-treated); test: Cell surface azide labeling and detection by fluorescence intensity (avidin-FITC); type: cell-based, Human
Description: FIG. 6 illustrates embodiments of cell-surface labeling with compounds 2 and 9. Jurkat cells grown for three days in the absence or presence of Ac4ManNAz (25 micromolar) were incubated a) with compounds 2 and 9 (30 micromolar) for 0-180 minutes or b) with compounds 2 and 9 (0-100 micromolar) for 1 hour at room temperature. Next, the cells were incubated with avidin-FITC for 15 minutes at 4° C., after which cell lysates were assessed for fluorescence intensity. Samples are indicated as follows: blank cells incubated with 2 (∘) or 9 (□), and Ac,ManNAz cells incubated with 2 (●) or 9 (▪).
Next, Jurkat cells were cultured in the presence of 25 micromolar N-azidoacetylmannosamine (Ac4ManNAz) for three days to metabolically introduce N-azidoacetylsialic acid (SiaNAz) moieties into glycoproteins (Luchansky and Bertozzi, Chem-BioChem 2004, 5:1706-1709). As a negative control, Jurkat cells were employed that were grown in the absence of Ac4ManNAz. The cells were exposed to a 30 micromolar solution of compound 9 for various time periods, and after washing, the cells were stained with avidin-fluorescein isothiocyanate (FITC) for 15 minutes at 4° C. The efficiency of the two-step cell-surface labeling was determined by measuring the fluorescence intensity of the cell lysates. […]

[4] = system: CHO cells bearing azides (Ac4ManNAz-treated); test: Cell labeling and detection by fluorescence (confocal) microscopy; type: cell-based, Chinese hamster
Description: FIG. 8 illustrates fluorescence images for embodiments of cells labeled with compound 9 and avidin-Alexa Fluor 488. CHO cells grown for 3 days in the absence (d-f) or presence (a-c) of Ac4ManNAz (100 micromolar) were incubated with compound 9 (30 micromolar) for 1 hour at 4° C. (a, d) or room temperature (b, c, e, f). Next, cells were incubated with avidin-Alexa Fluor 488 for 15 minutes at 4° C. and, after washing, fixing, and staining for the nucleus with far-red-fluorescent dye TO-PRO, imaged (a, b, d, e) or after washing incubated for 1 hour at 37° C. before fixing, nucleus staining, and imaging (c, f).
Next, attention was focused on visualizing azido-containing glycoconjugates of living cells by confocal microscopy. Thus, adherent Chinese hamster ovary (CHO) cells were cultured in the presence of Ac4ManNAz (100 micromolar) for three days. The resulting cell-surface azido moieties were treated with 9 (30 micromolar) for 1 hour and then with avidin-AlexaFluor488 for 15 minutes at 4° C.
Cell-surface glycoconjugates are constantly recycled by endocytosis, and to monitor this process, metabolically labeled cells were reacted with 9 and avidin-AlexaFluor488 according to the standard protocol and incubated at 37° C. for 1 hour before examination by confocal microscopy.
Chinese hamster ovary (CHO) cells (Clone K1; ATCC) were cultured in Kaighn's modification of Ham's F-12 medium (F-12K) with L-glutamine (2 mM), adjusted to contain sodium bicarbonate (1.5 g L^−1) and supplemented with penicillin (100 u mL^−1)/streptomycin (100 micrograms mL^−1 and FBS (10%). Cells were maintained in a humid 5% CO2 atmosphere at 37° C. CHO cells were grown in the presence of Ac4ManNaz (100 micromolar final concentration) for 3 days to metabolically incorporate SiaNAz into their cell surface glycoproteins. CHO cells bearing azides and untreated control cells were then transferred to a glass coverslip and cultured for 36 hours in their original medium. […] The step size, based on the calculated optimum for each objective, was between 0.25 and 0.5 micrometers. […]

[5] = Solubility seen in the labeling experiment; type: physicochemical; settings: no increase in labeling above 100 micromolar
Description: The concentration dependence of the cell-surface labeling was studied by incubation of cells with various concentrations of 2 and 9 followed by staining with avidin-FTIC (FIG. 6b).

[6] = cycloaddition with benzyl azide

SMILES: OC1Cc2ccccc2C#Cc2ccccc21 (stereo not drawn) [Compound 3, 3-Hydroxy-7,8-didehydro-1,2:5,6-dibenzocyclooctene]
- rate constant compared with cyclooctyne 1 ([1]; acetonitrile/water): three orders of magnitude greater
- second-order rate constant ([1]; reaction with benzyl azide in methanol): 0.17 m^−1s^−1
- second-order rate constant ([1]; reaction with benzyl azide in water/acetonitrile (1:4 v/v)): 2.3 m^−1s^−1
- shelf life [2]: excellent, long shelf life
- reactivity with nucleophiles ([2]; thiols and amines): did not react with nucleophiles such as thiols and amines

SMILES: O=C(CCCCC1SCC2NC(=O)NC21)NCCOCCOCCNC(=O)OC1Cc2ccccc2C#Cc2ccccc21 (stereo not drawn) [Compound 9, Carbonic acid 7,8-didehydro-1,2:5,6-dibenzocyclooctene-3-yl ester, 8′-biotinylamine-3′,6′-dioxaoctane 1′-amide]
- incubation time after which labeling was almost complete ([3]; 30 micromolar, room temperature, then avidin-FITC): 60 min
- concentration at which reliable fluorescent labeling was achieved ([3]; 1 hour at room temperature): 3 µM
- labeling efficiency at ambient temperature versus 4° C. ([4]; 30 micromolar, 1 hour): equally efficient when performed at either ambient temperature or 4 °C
- location of staining ([4]; 30 micromolar, 1 hour, then avidin-AlexaFluor488): staining was observed only at the surface
- internalization of labeled glycoproteins ([4]; after labeling, incubated at 37° C. for 1 hour): a significant quantity of labeled glycoproteins had been internalized into vesicular compartments
- solubility [5]: limited solubility
- effect on cell viability (Jurkat cells; two-step labeling, morphology and exclusion of trypan blue): no effect on cell viability

SMILES: C1#Cc2ccccc2CCc2ccccc21 [Compound 62, reference compound]
- times slower reaction than 4-dibenzocyclooctynol (61) [1, 6]: approximately 70 times

SMILES: O=C1Cc2ccccc2C#Cc2ccccc21 [Compound 67, 6H-11,12-didehydro-dibenzo[a,e]cyclooctatrien-5-one]
- reaction rate compared with 61 (in words) [1, 6]: slightly higher reaction rate than 1

SMILES: [Cl][Cu] [Cu^ICl, reference compound]
- cell death (Jurkat cells): approximately 98%
